Source: PubChem BioAssay (NCI)
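Step 1: Grow cells in 96-well plates. Step 2: Expose to compound for 48 hours at 5 concentrations. Step 3: Interpolate endpoints linearly; if unreached, use highest concentration. GI50: concentration for 50% inhibition of growth. TGI: total growth inhibition.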

What was measured:
Assay in all cases: DTP human tumour cell line panel, 48 h
A498 renal = tested on: A498 renal
A549 NSCLC = tested on: A549 NSCLC
HOP-62 NSCLC = tested on: HOP-62 NSCLC
KM12 colon = tested on: KM12 colon
MCF7 breast = tested on: MCF7 breast
NCI-H522 lung = tested on: NCI-H522 lung
OVCAR-5 ovarian = tested on: OVCAR-5 ovarian
SF-539 CNS = tested on: SF-539 CNS
UACC-257 melanoma = tested on: UACC-257 melanoma
UACC-62 melanoma = tested on: UACC-62 melanoma

SMILES | GI50 (A498 renal) [µM] | TGI (A498 renal) [µM] | GI50 (A549 NSCLC) [µM] | TGI (A549 NSCLC) [µM] | GI50 (HOP-62 NSCLC) [µM] | TGI (HOP-62 NSCLC) [µM] | GI50 (KM12 colon) [µM] | TGI (KM12 colon) [µM] | GI50 (MCF7 breast) [µM] | TGI (MCF7 breast) [µM] | GI50 (NCI-H522 lung) [µM] | TGI (NCI-H522 lung) [µM] | GI50 (OVCAR-5 ovarian) [µM] | TGI (OVCAR-5 ovarian) [µM] | GI50 (SF-539 CNS) [µM] | TGI (SF-539 CNS) [µM] | GI50 (UACC-257 melanoma) [µM] | TGI (UACC-257 melanoma) [µM] | GI50 (UACC-62 melanoma) [µM] | TGI (UACC-62 melanoma) [µM]
CC(=O)OC1C2(CC3N4C(=O)C5(CO)SSC4(CC31O)C(=O)N5C)OC(C)C(C)(C)C2=O (stereo not given) | 0.0352 | 0.0717 | 0.0592 | 0.231 | 0.575 | 1.08 | 1.16 | 2.6 | < 0.0139 | 0.403 | 1.33 | 3.17 | 0.0578 | 0.208 | 0.139 | 0.215 | 0.224 | 0.651 | 0.0103 | 0.0322
C=C[C@]1(C)C=C2C(=O)[C@@]3(O)OC[C@@]4(CCCC(C)(C)C43O)C2(O)C(O)C1 (stereo not given in full) | 12.8 | 25.6 | 14.5 | 30.8 | 11.4 | 24.7 | 13.1 | 26.8 | 3.39 | 15.3 | 0.631 | 2.84 | 12.1 | 25.9 | 5.15 | 15.4 | 2.06 | 4.21 | 7.77 | 21.5
Cc1cc(N2CCCC2)nc(N(CCCNc2ccnc3cc(Cl)ccc23)Cc2ccc3c(c2)OCO3)n1 | 2.44 | 7.5 | 2.74 | 12.5 | 1.83 | 10.2 | 2.73 | 11 | 1.17 | 4.98 | 1.66 | 3.95 | 2.46 | 8.92 | 1.23 | 2.6 | 1.84 | 3.47 | 1.78 | 3.38
CCSc1nc(COC(=O)NC)c(COC(=O)NC)n1C |  | > 82 |  | > 100 |  | > 100 |  | > 100 |  | > 100 |  | > 95.4 |  | > 100 |  | > 100 |  | > 100 |  | 51.2
Nc1nc(OCc2ccccc2)nc2[nH]ncc12 | 11.2 | 26.4 | 27.7 | > 100 | 19.3 | 37.8 | 16.2 | 34.5 | 16.1 | 33.1 | 25.5 | > 100 | 11.9 | 28.2 | 23.3 | 47.7 | 19 | 37.1 | 14.4 | 32.1
COc1ccc2c(c1)C(=O)c1c-2n(CCCN2CCOCC2)c(=O)c2ccccc12 | 1.87 | 5.48 | 1.97 | 8.41 | 1.7 | 6.16 | 3.64 | 42.5 | 0.291 | 13 | 1.52 | 13.9 | 6.18 | > 100 | 2.17 | 5.33 | 4.46 | > 31.5 | 1.76 | 5.87
O=C(NN1C(=O)CSC1c1ccc(Cl)cc1)c1[nH]c2ccc(F)cc2c1-c1ccccc1 (stereo not given) | 2.98 | 9.79 | 3.58 | 15.6 | 2.34 | 5.55 | 1.61 | 3.38 | 2.85 | 8.58 | 4.34 | 14.8 | 2.64 | 8.34 | 6.08 | 13.5 | 10.5 | 25.6 | 5.38 | 17.3
COC(=O)[C@@H]1CCCN1C(=O)[C@@H]1CCCN1C(=O)[C@@H](Cc1c[nH]c2ccccc12)NC(=S)Nc1cc(C(F)(F)F)cc(C(F)(F)F)c1 | 11.1 | 98.2 | 5.31 | > 100 | 8.35 | > 100 | 5.45 | > 100 | 2.61 | > 100 | 3.98 | 26.5 | 15 | 73 | 7.72 | 67.4 | 4.06 | 35.3 | 3.68 | 20.4
Fc1ccc(Nc2nc(NCCNc3ccnc4cc(Cl)ccc34)nc(N3CCOCC3)n2)cc1 | 1.48 | 8.47 | 10.5 | 25.1 | 13.4 | 26.5 | 5.44 | 18.7 | 3.43 | 14.7 | 4.25 | 15.3 | 17.6 | 32.1 | 3.79 | 15.2 | 1.9 | 3.65 | 2.65 | 7.35
CS(=O)(=O)Nc1cc(-c2ccc3ncnc(Nc4ccc5c(cnn5Cc5ccc(F)cc5)c4)c3c2)cnc1Cl | 1.33 | 3.4 | 3.38 | 63.8 | 1.53 | 41.4 | 2.93 | 9.72 | 0.404 | 10.2 | 1.79 | 12.8 | 1.53 | 8.84 | 1.5 | 5.29 | 2.17 | 17.9 | 0.607 | 2.98
C=C(C)CCC(C)N1CCC(N2CCC(C(=O)NCCc3ccccc3)CC2)CC1 (stereo not given) | 4.55 | 44.4 | 32.2 | > 100 | 68.9 | > 100 | 54.6 | > 100 | 19.6 | > 100 | 14 | 54.4 | 78.9 | > 100 | 10.5 | 23.8 | 13.5 | 30.5 | 13.7 | 28.8
NCc1ccc(-n2c(-c3nonc3N)nc3cnccc32)cc1 | 1.38 | > 22.1 | 6.86 | > 25 | > 14.4 | > 25 | 8.79 | > 25 | 5.19 | > 25 | 7.66 | > 25 | 11.7 | > 25 | 2.57 | > 23.6 | > 25 | > 25 | > 25 | > 25
CC(C)OC(=O)c1ccc2[nH]c(O)c(C(=Nc3ccc(N(C)C(=O)CN4CCN(C)CC4)cc3)c3ccccc3)c2c1 | 0.188 | 1 | 0.389 | 2.18 | 0.471 | 2.4 | 0.0251 | 1.56 | 0.485 | 2.07 | 1.22 | 3.02 | 1.51 | 3.22 | 0.318 | 1.16 | 1.54 | 3.57 | 1.32 | 3.01
CN(C)c1ccc(N=Nc2c([O-])ccc3ccccc23)cc1.[C-]#[O+].[C-]#[O+].[Ir] | > 100 | > 100 | > 46.6 | > 69.3 | > 100 | > 100 | > 100 | > 100 | 15.8 | 31.8 | 7.83 | 23.5 | > 42.1 | > 58.7 | 16.3 | 25.6 | 5.71 | 36 | 21.5 | 55.6
Fc1ccc(Nc2nccc(-c3c(-c4ccc(C(F)(F)F)cc4)nn4ncccc34)n2)cc1F | > 25 | > 25 | > 25 | > 25 | > 25 | > 25 | > 25 | > 25 | > 20.2 | > 25 | > 25 | > 25 | > 25 | > 25 | > 25 | > 25 | > 25 | > 25 | > 25 | > 25
O=c1[nH]cnc2c(C3OC(CO)C(O)C3O)scc12 (stereo not given) | > 100 | > 100 | > 100 | > 100 | 46.9 | > 100 | > 100 | > 100 | 50.1 | > 100 | > 100 | > 100 | > 100 | > 100 | > 100 | > 100 | > 100 | > 100 | > 100 | > 100
